Literature values as cited in patent US20090011014A1, “Tablet Formulation for Sustained Drug-Release” (UNIVERSITE DE MONTREAL, priority 2004, published 2009).
Where a name gives a salt, the structure may show the parent alone. Read-outs that look alike come from different tables or passages of the source.

Legend:
[1] = 400-mg substituted amylose tablet containing 10% of drug; example 5 and FIG. 16 of U.S. Pat. No. 5,879,707

Compound: CC(=O)Nc1ccc(O)cc1 [Acetaminophen]
- Influence of pH on solubility (physiological conditions): not influenced by pH

Compound: O=C([O-])c1ccccc1O.[Na+] [Sodium salicylate]
- Solubility, U.S.P. XXIII descriptive term: freely soluble
- Time for release of 95% of the drug [1]: 6.5 h

Compound: CC(NC(C)(C)C)C(=O)c1cccc(Cl)c1 (stereo not shown) [bupropion hydrochloride]
- Solubility, U.S.P. XXIII descriptive term (hydrochloride): freely soluble
